Test results from ChEMBL document CHEMBL3865816, “Design, synthesis and biological evaluation of novel azaspiro analogs of linezolid as antibacterial and antitubercular agents” (Eur J Med Chem, 2016).
≈ marks a conversion by molar mass, not a printed value.

Assays:
Type in all cases: functional
[1] = test system: Mycobacterium tuberculosis variant bovis; assay: Antitubercular activity against dormant stage Mycobacterium bovis BCG ATCC 35734 measured after 12 days by nitrate reductase assay; conditions: ATCC 35734, 288 h
[2] = test system: Mycobacterium tuberculosis variant bovis; assay: Antitubercular activity against dormant stage Mycobacterium bovis BCG ATCC 35734 at 30 ug/ml measured after 12 days by nitrate reductase assay; conditions: ATCC 35734, 288 h
[3] = test system: Mycobacterium tuberculosis variant bovis; assay: Antitubercular activity against dormant stage Mycobacterium bovis BCG ATCC 35734 at 10 ug/ml measured after 12 days by nitrate reductase assay; conditions: ATCC 35734, 288 h
[4] = test system: Mycobacterium tuberculosis variant bovis; assay: Antitubercular activity against dormant stage Mycobacterium bovis BCG ATCC 35734 at 3 ug/ml measured after 12 days by nitrate reductase assay; conditions: ATCC 35734, 288 h
[5] = test system: Mycobacterium tuberculosis variant bovis; assay: Antitubercular activity against active stage Mycobacterium bovis BCG ATCC 35734 measured after 8 days by nitrate reductase assay; conditions: ATCC 35734, 192 h

Structure (SMILES)	IC50 [1]	MIC [1]	inhibition at 30 µg/mL [2]	inhibition at 10 µg/mL [3]	inhibition at 3 µg/mL [4]	IC50 [5]	MIC [5]
COCC(=O)NC[C@H]1CN(c2ccc(N3CC4(COC4)C3)c(F)c2)C(=O)O1	> 100 mg/L	> 100 mg/L	98.6%	97.2%	74.5%	–	–
CC(=O)OCC(=O)NC[C@H]1CN(c2ccc(N3CC4(COC4)C3)c(F)c2)C(=O)O1	3.05 mg/L (≈ 7.49 µM)	5.77 mg/L (≈ 14.2 µM)	99.4%	99.6%	99.2%	3.35 mg/L (≈ 8.22 µM)	6.32 mg/L (≈ 15.5 µM)
O=C1O[C@@H](CNS(=O)(=O)c2cc([N+](=O)[O-])ccc2Cl)CN1c1ccc(N2CC3(COC3)C2)c(F)c1	> 100 mg/L	> 100 mg/L	15%	11.6%	11.1%	–	–
O=C1O[C@@H](CNS(=O)(=O)c2cccc(C(F)(F)F)c2)CN1c1ccc(N2CC3(COC3)C2)c(F)c1	> 100 mg/L	> 100 mg/L	-5.29%	-6.57%	-2.23%	–	–
COc1ccc(NC(=S)NC[C@H]2CN(c3ccc(N4CC5(COC5)C4)c(F)c3)C(=O)O2)cc1	> 100 mg/L	> 100 mg/L	73.2%	63%	18.9%	–	–
O=C(NC[C@H]1CN(c2ccc(N3CC4(COC4)C3)c(F)c2)C(=O)O1)c1cccnc1	> 100 mg/L	> 100 mg/L	102%	101%	76.2%	–	–
O=C1O[C@@H](CNC(=S)Nc2ccc(Cl)cc2)CN1c1ccc(N2CC3(COC3)C2)c(F)c1	> 100 mg/L	> 100 mg/L	-26.1%	-10.1%	-1.89%	–	–
O=C1O[C@@H](CNC(=S)Nc2cccc(C(F)(F)F)c2)CN1c1ccc(N2CC3(COC3)C2)c(F)c1	> 100 mg/L	> 100 mg/L	94.8%	83.9%	29.6%	–	–
NC[C@H]1CN(c2ccc(N3CC4(COC4)C3)c(F)c2)C(=O)O1	17.3 mg/L (≈ 56.4 µM)	24.4 mg/L (≈ 79.2 µM)	89.4%	52%	-0.29%	15.7 mg/L (≈ 51.2 µM)	29.5 mg/L (≈ 96 µM)
O=C(NC[C@H]1CN(c2ccc(N3CC4(COC4)C3)c(F)c2)C(=O)O1)c1ccno1	4.83 mg/L (≈ 12 µM)	10.1 mg/L (≈ 25.2 µM)	89%	86.1%	66.9%	4.11 mg/L (≈ 10.2 µM)	9.82 mg/L (≈ 24.4 µM)
O=C1O[C@@H](CNC(=S)Nc2ccc([N+](=O)[O-])cc2)CN1c1ccc(N2CC3(COC3)C2)c(F)c1	> 100 mg/L	> 100 mg/L	-6.89%	-15.8%	39.9%	–	–
O=C1OC2(CCNC2)CN1c1ccc(N2CCOCC2)c(F)c1 (centres undefined)	> 100 mg/L	> 100 mg/L	-7.3%	-16.8%	-3.11%	–	–
O=C(NC[C@H]1CN(c2ccc(N3CC4(COC4)C3)c(F)c2)C(=O)O1)c1ccc(C(F)(F)F)cc1	> 100 mg/L	> 100 mg/L	73.1%	8.62%	65%	–	–
OC1(CNc2ccc(N3CCOCC3)c(F)c2)CCN(Cc2ccccc2)C1 (centres undefined)	> 100 mg/L	> 100 mg/L	-1.83%	-6.66%	-6.7%	–	–
CC(=O)NC[C@H]1CN(c2ccc(N3CC4(COC4)C3)c(F)c2)C(=O)O1	0.81 mg/L (≈ 2.32 µM)	1.67 mg/L (≈ 4.78 µM)	95.9%	100%	99.1%	0.79 mg/L (≈ 2.26 µM)	1.83 mg/L (≈ 5.24 µM)
CC(=O)NC[C@H]1CN(c2ccc(C3=C[C@H]4CC[C@@H](C3)N4C(=O)OC(C)(C)C)c(F)c2)C(=O)O1	5.82 mg/L (≈ 12.7 µM)	23.1 mg/L (≈ 50.4 µM)	96.3%	89.3%	57.9%	4.35 mg/L (≈ 9.47 µM)	31.2 mg/L (≈ 67.8 µM)
N#Cc1ccc(NC(=S)NC[C@H]2CN(c3ccc(N4CC5(COC5)C4)c(F)c3)C(=O)O2)cc1	> 100 mg/L	> 100 mg/L	88.1%	97.2%	97.4%	–	–
CC(C)(C)NC(=S)NC[C@H]1CN(c2ccc(N3CC4(COC4)C3)c(F)c2)C(=O)O1	> 100 mg/L	> 100 mg/L	33.6%	-3.89%	-9.84%	–	–
O=C1OC2(CCN(Cc3ccccc3)C2)CN1c1ccc(N2CCOCC2)c(F)c1 (centres undefined)	> 100 mg/L	> 100 mg/L	-11.2%	-9.32%	-11.8%	–	–
O=C1O[C@@H](CNC(=O)C23CC4CC(CC(C4)C2)C3)CN1c1ccc(N2CC3(COC3)C2)c(F)c1	> 100 mg/L	> 100 mg/L	62.6%	44.1%	11.8%	–	–
CC(=O)N1CCC2(C1)CN(c1ccc(N3CCOCC3)c(F)c1)C(=O)O2 (centres undefined)	> 100 mg/L	> 100 mg/L	8.79%	-3.02%	-2.09%	–	–
O=C1O[C@@H](CNS(=O)(=O)c2cc(Cl)cc(Cl)c2)CN1c1ccc(N2CC3(COC3)C2)c(F)c1	> 100 mg/L	> 100 mg/L	3.87%	-2.28%	25.9%	–	–
O=C1O[C@@H](CNC(=S)Nc2ccccc2F)CN1c1ccc(N2CC3(COC3)C2)c(F)c1	17.7 mg/L (≈ 38.4 µM)	61.2 mg/L (≈ 133 µM)	94.7%	92.9%	42.1%	13.1 mg/L (≈ 28.4 µM)	44.5 mg/L (≈ 96.5 µM)
O=C(NC[C@H]1CN(c2ccc(N3CC4(COC4)C3)c(F)c2)C(=O)O1)Nc1ccc(Cl)cc1	> 100 mg/L	> 100 mg/L	28.6%	-3.58%	-5.78%	–	–
CC(C)NC(=S)NC[C@H]1CN(c2ccc(N3CC4(COC4)C3)c(F)c2)C(=O)O1	> 100 mg/L	> 100 mg/L	94.4%	74.6%	21.9%	–	–
CC1(C)[C@@]2(C)CC[C@]1(C(=O)NC[C@H]1CN(c3ccc(N4CC5(COC5)C4)c(F)c3)C(=O)O1)OC2=O	> 100 mg/L	> 100 mg/L	8.27%	3.86%	-35.3%	–	–
O=C1O[C@@H](CNS(=O)(=O)c2ccc(Cl)s2)CN1c1ccc(N2CC3(COC3)C2)c(F)c1	> 100 mg/L	> 100 mg/L	91.7%	83.5%	34.8%	–	–
CC(=O)NC[C@H]1CN(c2ccc(N3CCOCC3)c(F)c2)C(=O)O1 [LINEZOLID]	0.31 mg/L (≈ 0.919 µM)	0.43 mg/L (≈ 1.27 µM)	101%	101%	101%	0.029 mg/L (≈ 0.086 µM)	0.42 mg/L (≈ 1.24 µM)
